{"source": "patent US5064637A", "about": "“Substituted sulfonamide derivatives which inhibit allergic reactions” (Board of Regents, The University of Texas System, priority 1989, dated 1991)", "key": {"IgG to SMX [1]": {"test_system": "IgG to SMX", "experiment": "Example 1: inhibition of IgG binding, ELISA, serum preincubated overnight with inhibitor", "parameters": "species or system human", "conditions": "for Reduction in percent binding: 20 microliter of 10 mg/ml inhibitor to 180 microliter serum, overnight; for inhibition of IgG binding (in words): serum dilutions 1:40, 1:80, 1:160", "experimental": "This experiment was performed to determine the amount of binding inhibition achieved with various inhibitory agents. […] The experiments were performed in 96-well microtiter plates having 8 rows\ndesignated A-H, and 12 columns designated 1-12. Each well of the microtiter plate was given a designation in accordance with the above grid system. All samples were diluted in phosphate buffered saline (PBS) to the designated dilution factor. The serum dilution levels used in this study were 1:40, 1:80 and 1:160, v/v.\nA sample of each serum dilution was preincubated overnight with a IgG binding inhibitor selected from Table 2. A 2o-lambda (mioroliter) volume from a lo mg/ml solution of the selected inhibitor was added to a 180 lambda volume of the particular serum sample.\nOne hundred milligrams (I00 mg) of each of the listed compounds was weighed out and added to a 10 ml volume of 100% PBS so as to achieve a final concentration of 10 mg/ml by weight of the inhibitor.\nIn accordance with the aforedescribed system, the wells at Row A, columns 1 and 2 of the microtiter plate, received 100 microliters of phosphate buffered saline as a blank. Row A, columns 3 and 4, received normal serum diluted 1:40 in PBS, and served as a negative control. Row A, columns 5 and 6 received -00 microliters of a positive serum (i.e., serum sample positive for IgG to SMX) diluted -:40. Row A, columns 7 and 8, received positive serum diluted at 1:80. Similarly, Row A, columns 9 and 10, received 100 microliters positive serum diluted at 1:160. […] The completed microtiter plate consisted of the following sample distribution (see Table 3).\nThe present invention was tested using a modified ELISA assay. The specific ELISA used employs the following reagents, standards and antibodies."}, "IgG to SMX [2]": {"test_system": "IgG to SMX", "experiment": "Example 3: inhibition studies, ELISA, serum preincubated overnight with inhibitor", "type": "binding, human", "conditions": "serum 1:40", "experimental": "This study was conducted to confirm results on binding inhibition obtained in Example 2. Two positive serums (i.e., positive for IgG to SMX) were employed, including the positive serum used in Examples 1 and 2. PBS (phosphate buffered saline) and a normal serum were also tested in this study.\nAll serum used were at a 1:40 final dilution. Serum was diluted in PBS.\nSeveral binding inhibitors at various dilutions were used. The particular inhibitors and the dilutions thereof examined appear in Table 8, along with their numerical designations.\nPositive serum samples were first preincubated overnight with 50 microliter of the numerically designated inhibitors (10 mg/ml inhibitor solution - See Example I).\nA standard ELISA assay was conducted using a 96 well microtiter plate as described for Example I. Row A, wells 3 and 4, received normal serum diluted 1:40 in PBS. Other wells received 10 microliter of positive serum A (Row A, well 5 through Row F, well 6) or positive serum B (Row F, well 7 through Row H, well 6) at a 1:40 dilution in PBS.\nThat percent binding inhibition obtained for each sample appears at Table 10."}, "Ig to SMX": {"test_system": "Ig to SMX", "experiment": "Hapten inhibition of Ig binding to SMX-HSA (RAST for IgE, ELISA for IgG, IgA, IgM)", "parameters": "species or system human", "conditions": "free inhibitor, specificity check", "excerpt": "SMX-HSA was used in radioallergoasorbent test (RAST) assays for IgE and ELISA assays for IgG, IgA, and IgM."}, "[3]": {"test_system": "IgE to SM (N^4 -SMX determinants)", "conditions": "cited from earlier work"}, "IgG to SMX [4]": {"test_system": "IgG to SMX", "experiment": "Example 2: hapten inhibition of IgG binding, ELISA, no preincubation", "parameters": "species or system human", "conditions": "final serum dilution 1:80", "experimental": "The assay was set up using a 96 well microtiter plate. None of the serum samples were preincubated with inhibitor. Serum used was positive (+) for IgG to SMX, and was used at a final dilution of […] for all wells.\nA variety of binding inhibitors were employed at varying concentrations.\nA 50 microliter volume of each numerically designated inhibitor was added each well of the plate. A 50 microliter volume of serum (1:40 dilution) positive to IgG to SMX was then added to each well. The final dilution of serum in each was then 1:80.\nThe microtiter plate was then shaken slightly to mix the contents of each well and then the standard ELISA assay was performed. The plate was then allowed to incubate for 2 hours at room temperature. The plates were then washed and the OD readings taken for each well.\nPercent inhibition was then calculated for each sample on the basis of decrease in OD."}}, "data": [{"compound": "Cc1cc(NS(=O)(=O)c2ccc(N=Nc3cc(CC(N)C(=O)O)ccc3O)cc2)no1", "note": "(centres unmarked) [Inhibitor 3]", "values": [{"measurement": "Reduction in percent binding", "setting": "IgG to SMX [1]; serum dilution 1:40", "value": 28, "unit": "%"}, {"measurement": "Reduction in percent binding", "setting": "IgG to SMX [1]; serum dilution 1:80", "value": 50, "unit": "%"}, {"measurement": "Reduction in percent binding", "setting": "IgG to SMX [1]; serum dilution 1:160", "value": 42, "unit": "%"}, {"measurement": "% Reduction in OD", "setting": "IgG to SMX [2]; inhibitor 0.1 mg/ml (Table 8)", "value": 32, "unit": "%"}]}, {"compound": "CC1(C)SC(C(NC(=O)Cc2ccccc2)C(=O)NCc2ccccc2)NC1C(=O)O", "note": "(centres unmarked) [Inhibitor 28]", "values": [{"measurement": "% Reduction in OD", "setting": "IgG to SMX [2]; inhibitor 10 mg/ml (Table 8), serum A or B not stated", "value": 0, "unit": "%"}]}, {"compound": "Cc1cc(NS(=O)(=O)c2ccc(N)cc2)no1", "note": "[SMX, Sulfamethoxazole, reference compound]", "values": [{"measurement": "inhibition of antibody binding to SMX-HSA (in words)", "setting": "Ig to SMX", "value": "also inhibited binding, but were usually less efficient"}, {"measurement": "inhibition of IgE binding of one highly reactive serum (in words)", "setting": "[3]", "value": "significantly inhibited"}]}, {"compound": "COC(=O)C(N)Cc1ccc(O)c(N=Nc2ccc(S(=O)(=O)Nc3cc(C)on3)cc2)c1", "note": "(centres unmarked) [SMX-Tyrosine Methyl ester]", "values": [{"measurement": "inhibition of IgG binding (in words)", "setting": "IgG to SMX [1]", "value": "considerable inhibition at the 1:40 serum dilution only"}, {"measurement": "% Inhibition", "setting": "IgG to SMX [4]; inhibitor 10 mg/ml", "value": 32, "unit": "%"}]}, {"compound": "Cc1cc(NS(=O)(=O)c2ccc(N=Nc3cc(CC(N)C(=O)O)ccc3O)cc2)no1", "note": "(centres unmarked) [SMX-Tyrosine]", "values": [{"measurement": "inhibition of IgG binding (in words)", "setting": "IgG to SMX [1]", "value": "significantly inhibit binding"}, {"measurement": "% Inhibition", "setting": "IgG to SMX [4]; inhibitor 0.1 mg/ml", "value": 51, "unit": "%"}, {"measurement": "% Inhibition", "setting": "IgG to SMX [4]; inhibitor 0.3 mg/ml", "value": 54, "unit": "%"}, {"measurement": "% Inhibition", "setting": "IgG to SMX [4]; inhibitor 1 mg/ml", "value": 57, "unit": "%"}, {"measurement": "% Inhibition", "setting": "IgG to SMX [4]; inhibitor 3 mg/ml", "value": 70, "unit": "%"}, {"measurement": "% Inhibition", "setting": "IgG to SMX [4]; inhibitor 10 mg/ml", "value": 59, "unit": "%"}]}, {"compound": "COc1cc(Cc2cnc(N)nc2N)cc(OC)c1OC", "note": "[Trimethoprim]", "values": [{"measurement": "inhibition of IgE binding of one highly reactive serum (in words)", "setting": "[3]", "value": "not"}]}, {"compound": "Cc1ccnc(NS(=O)(=O)c2ccc(N)cc2)n1", "note": "[sulfamerazine]", "values": [{"measurement": "inhibition of IgE binding of one highly reactive serum (in words)", "setting": "[3]", "value": "significantly inhibited"}]}, {"compound": "Cc1nnc(NS(=O)(=O)c2ccc(N)cc2)s1", "note": "[sulfamethizole]", "values": [{"measurement": "inhibition of IgE binding of one highly reactive serum (in words)", "setting": "[3]", "value": "significantly inhibited"}]}, {"compound": "Nc1ccc(S(=O)(=O)O)cc1", "note": "[sulfanilic acid]", "values": [{"measurement": "inhibition of IgE binding of one highly reactive serum (in words)", "setting": "[3]", "value": "not"}]}, {"compound": "N^4 -sulfamethoxazoyl-L-histidine [SMX-Histidine]", "values": [{"measurement": "inhibition of antibody binding to SMX-HSA (in words)", "setting": "Ig to SMX; listed as N^4 -sulfamethoxazoyl histidine", "value": "among the most active"}, {"measurement": "inhibition of antibody binding to SMX-HSA (in words)", "setting": "Ig to SMX; listed as SMX-HD", "value": "inhibition of binding"}, {"measurement": "inhibition of IgG binding (in words)", "setting": "IgG to SMX [1]", "value": "significant reduction in binding at the 1:80 and I:160 serum dilution, but none at the 1:40 dilution"}, {"measurement": "% Inhibition", "setting": "IgG to SMX [4]; inhibitor 10 mg/ml", "value": 54, "unit": "%"}]}, {"compound": "N^4 -sulfamethoxazoyl-poly-L-tyrosine [SMX-poly-L-tyrosine]", "values": [{"measurement": "inhibition of IgG binding (in words)", "setting": "IgG to SMX [1]", "value": "significantly inhibit binding"}, {"measurement": "% Inhibition", "setting": "IgG to SMX [4]; inhibitor 0.1 mg/ml", "value": 0, "unit": "%"}, {"measurement": "% Inhibition", "setting": "IgG to SMX [4]; inhibitor 0.3 mg/ml", "value": 2, "unit": "%"}, {"measurement": "% Inhibition", "setting": "IgG to SMX [4]; inhibitor 1 mg/ml", "value": 24, "unit": "%"}, {"measurement": "% Inhibition", "setting": "IgG to SMX [4]; inhibitor 3 mg/ml", "value": 46, "unit": "%"}, {"measurement": "% Inhibition", "setting": "IgG to SMX [4]; inhibitor 10 mg/ml", "value": 50, "unit": "%"}]}, {"compound": "SMX-Imidazole", "values": [{"measurement": "% Inhibition", "setting": "IgG to SMX [4]; inhibitor 10 mg/ml", "value": 61, "unit": "%"}]}, {"compound": "SMX-Lysine", "values": [{"measurement": "% Inhibition", "setting": "IgG to SMX [4]; inhibitor 10 mg/ml", "value": 51, "unit": "%"}]}, {"compound": "SMX-Tryptophan", "values": [{"measurement": "% Inhibition", "setting": "IgG to SMX [4]; inhibitor 10 mg/ml", "value": 52, "unit": "%"}]}, {"compound": "Sulfamerazine-Histidine", "values": [{"measurement": "% Inhibition", "setting": "IgG to SMX [4]; inhibitor 10 mg/ml", "value": 35, "unit": "%"}]}, {"compound": "Sulfamethizole-histidine [Sulfamethazole-histidine]", "values": [{"measurement": "% Inhibition", "setting": "IgG to SMX [4]; inhibitor 10 mg/ml", "value": 7, "unit": "%"}]}, {"compound": "Sulfanilic-Histidine", "values": [{"measurement": "% Inhibition", "setting": "IgG to SMX [4]; inhibitor 10 mg/ml", "value": 60, "unit": "%"}]}]}
